Read-outs that look alike come from different tables or passages of the source.
Tests used:
[1] = tested on: Cabbage Looper (Trichoplusia ni, TRIPNI); experiment: Bioassay on Cabbage Looper (CL), 128-well diet tray assay; type: in vivo; conditions: Trichoplusia ni
Procedure, shortened: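 Second-instar larvae, one to five per well, placed on artificial diet treated with 50 μg/cm^2 test molecule in 90:10 acetone-water, dried before infestation. Held 5–7 days at 25° C, 14:10 light-dark; percent mortality averaged over eight wells.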

[2] = tested on: Yellow Fever Mosquito (Aedes aegypti, AEDSAE); experiment: Bioassay on Yellow Fever Mosquito (YFM), 96-well plate larval assay; type: in vivo; conditions: for YFM rating: Yellow Fever Mosquito, 96-well plate larval assay; for YFM (Biological Results, rating): Species YFM (Yellow Fever Mosquito)
Procedure, shortened: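 Each well was scored for mortality after 3 days at room temperature under a non-evaporative lid. Test molecules came from DMSO masters (4000 ppm stock) diluted with water/acetone 90:10 and dispensed into six replicate plates, which were then infested with roughly 1-day-old larvae in liver-powder water.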

[3] = tested on: Beet Armyworm (Spodoptera exigua, LAPHEG); experiment: Bioassay on Beet Armyworm (BAW), 128-well diet tray assay; type: in vivo
Procedure, shortened: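 Diet tray, 8 wells/compound; 50 μg/cm^2 applied to diet surface (90:10 acetone-water), dried. 1–5 L2 larvae/well; 25° C., 14:10 L:D, 5–7 d. Read-out: % mortality, mean of 8 wells.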

[4] = tested on: Green Peach Aphid (Myzus persicae, MYZUPE); experiment: Bioassay on Green Peach Aphid (GPA), foliar spray on infested cabbage seedlings; type: in vivo; conditions: 72 h
Procedure, shortened: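 Cabbage seedlings (2-3 true leaves) infested with 20-50 wingless adult and nymph aphids one day before treatment; sprayed to runoff at 200 ppm in 0.025% Tween 20 water with 20% acetone/methanol, four pots per treatment. Held three days at about 25° C; live aphids counted, % control by Abbott's correction versus solvent check.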

[5] = Cabbage Looper, 128-well diet tray assay, read-out: CL rating
[6] = Beet Armyworm, 128-well diet tray assay, read-out: BAW rating
[7] = Green Peach Aphid, foliar spray on cabbage seedlings, read-out: GPA rating
[8] = Species CL (Cabbage Looper), read-out: CL (Biological Results, rating)
[9] = Species BAW (Beet Armyworm), read-out: BAW (Biological Results, rating)
[10] = foliar, Species GPA (Green Peach Aphid), read-out: GPA (Biological Results, rating)

melting point | Compound | also measured
113 to 115 °C | O=C(O)C1C(c2cc(Cl)cc(C(F)(F)F)c2)C1(Cl)Cl (centres unmarked) | –
115 to 117 °C | Nc1ccc(OC(F)(F)F)c(C(=O)Nc2ccc(F)cc2)c1 | –
133 to 136 °C | Nc1cc(Cl)cc(C(=O)Nc2ccc(F)cc2)c1 | –
161 to 163 °C | O=C(O)C1C(c2cc(Cl)cc(Br)c2)C1(Cl)Cl (centres unmarked) | –
138 to 140 °C | O=C(O)C1C(c2cc(F)cc(Cl)c2)C1(Cl)Cl (centres unmarked) | –
140 to 142 °C | O=C(O)C1C(c2ccc(Cl)c(F)c2)C1(Cl)Cl (centres unmarked) | –
124 to 126 °C | Cc1cc(Cl)cc(C2C(C(=O)O)C2(Cl)Cl)c1 (centres unmarked) | –
169 to 170 °C | O=C(Nc1ccc(F)cc1)c1cccc([N+](=O)[O-])n1 | –
136 to 138 °C | Cc1ccc(C(=O)Nc2ccc(F)cc2)cc1[N+](=O)[O-] | –
175 to 177 °C | O=C(Nc1ccc(F)cc1)c1cc([N+](=O)[O-])ccc1OC(F)(F)F | –
209 to 210 °C | O=C(Nc1ccc(F)cc1)c1cc(Cl)cc([N+](=O)[O-])c1 | –
181 to 183 °C | Cc1c(Cl)cc(C2C(C(=O)O)C2(Cl)Cl)cc1Cl (centres unmarked) | –
157 to 159 °C | Cc1cc(C2C(C(=O)O)C2(Cl)Cl)cc(Cl)c1Cl (centres unmarked) | –
116 to 118 °C | O=C(O)C1C(c2ccc(C(F)(F)C(F)(F)F)cc2)C1(Cl)Cl (centres unmarked) | –
129 to 130 °C | CCOc1ccc(C2C(C(=O)O)C2(Cl)Cl)cc1 (centres unmarked) | –
178.3 to 188.6 °C | O=C(O)C1C(c2cc(F)c(Br)c(F)c2)C1(Cl)Cl (centres unmarked) | –
227 to 231 °C | COc1c(Cl)cc(C2C(C(=O)Nc3ccc(Cl)c(C(=O)O)c3)C2(Cl)Cl)cc1Cl (centres unmarked) | –
231 to 235 °C | O=C(O)c1cc(NC(=O)C2C(c3cc(Cl)cc(Cl)c3)C2(Cl)Cl)cc(Cl)c1Cl (centres unmarked) | –
263 to 266 °C | O=C(O)c1cc(NC(=O)C2C(c3cc(Cl)cc(Cl)c3)C2(Cl)Cl)c(Cl)cc1Cl (centres unmarked) | –
227 °C (dec.) | Nc1ccc(Cl)c(C(=O)Nc2ccc(-c3ncco3)cc2)c1 | –
50 to 81 °C | Nc1ccc(Cl)c(C(=O)Nc2ccc(-n3cccn3)cc2)c1 | –
129 to 131 °C | CCc1ccc(N)cc1C(=O)Nc1ccc(F)cc1 | –
143 to 161 °C | Cc1cc(NC(=O)OC(C)(C)C)ccc1NC(=O)c1cccc(N)c1 | –
195 to 200 °C | Cc1cc(NC(=O)OC(C)(C)C)ccc1NC(=O)c1cc([N+](=O)[O-])ccc1Cl | –
192 to 202 °C | O=C(Nc1ccc(F)c(C(F)(F)F)c1)c1cc([N+](=O)[O-])ccc1Cl | –
200 to 205 °C | O=C(Nc1ccc(-n2cccn2)cc1)c1cc([N+](=O)[O-])ccc1Cl | –
192 to 194 °C | O=C(Nc1ccc(-c2ncco2)cc1)c1cc([N+](=O)[O-])ccc1Cl | –

melting point | Compound | also measured
104 to 109.3 °C | COc1ccc(C2C(c3cc(F)c(Br)c(F)c3)C2(Cl)Cl)cc1 (centres unmarked) | –
158 to 160 °C | C=Cc1ccc([N+](=O)[O-])cc1C(=O)Nc1ccc(F)cc1 | –
137 to 145 °C | Cc1ccc([N+](=O)[O-])cc1NC(=O)OC(C)(C)C | –
98 to 101 °C | Cc1cc([N+](=O)[O-])ccc1N(C)C(=O)OC(C)(C)C | –
57 to 60 °C | Cc1ccc([N+](=O)[O-])cc1N(C)C(=O)OC(C)(C)C | –
102 to 107 °C | CC(C)(C)OC(=O)N(C(=O)OC(C)(C)C)c1c(N)cc(F)cc1F | –
104 to 115 °C | CC(C)(C)OC(=O)N(C(=O)OC(C)(C)C)c1ccc(F)cc1N | –
161 to 164 °C | COc1c(Cl)cc(C2C(C(=O)O)C2(Cl)Cl)cc1Cl (centres unmarked) | –
173 to 175 °C | N#Cc1cc(Cl)cc(C2C(C(=O)O)C2(Cl)Cl)c1 (centres unmarked) | –
91 to 94 °C | COc1ccc(/C=C/c2ccc(Cl)c(Cl)c2)cc1 | –
86 to 88 °C | O=C(O)C1C(c2cccc(C(F)(F)F)c2)C1(Cl)Cl (centres unmarked) | –
134 to 136 °C | O=C(O)C1C(c2ccc(OC(F)(F)F)c(Cl)c2)C1(Cl)Cl (centres unmarked) | –
189 to 192 °C | O=C(O)C1C(c2cc(Cl)c(Cl)cc2Cl)C1(Cl)Cl (centres unmarked) | –
112 to 114 °C | O=C(O)C1C(c2cc(C(F)(F)F)cc(C(F)(F)F)c2)C1(Cl)Cl (centres unmarked) | –
157 to 159 °C | O=C(O)C1C(c2cc(Br)cc(Br)c2)C1(Cl)Cl (centres unmarked) | –
– | O=C(Nc1ccsc1)c1cc(NC(=O)[C@H]2[C@H](c3cc(Cl)cc(Cl)c3)C2(Cl)Cl)ccc1Cl (relative stereo) [PF152, trans-2-Chloro-5-(2,2-dichloro-3-(3,5-dichlorophenyl)cyclopropane-1-carboxamido)-N-(thiophen-3-yl)benzamide] | pest or weed control at 50 µg/cm2 [1, 5]: 50 to 100%; YFM rating [2]: B (More than 0-Less than 80); pest or weed control at 50 µg/cm2 [3, 6]: 50 to 100%; pest or weed control at 200 µg/mL [4, 7]: 0 to 80%
121 to 123 °C | O=C(O)C1C(c2ccc(F)c(Cl)c2)C1(Cl)Cl (centres unmarked) [C16] | –
119 to 121 °C | O=C(O)C1C(c2ccc(F)c(Cl)c2)C1(Cl)Cl (centres unmarked) [C420] | –
– | O=C(Nc1ccc(F)cc1)c1cc(NC(=O)[C@H]2[C@H](c3cc(Cl)cc(Cl)c3)C2(Cl)Cl)ccc1Cl [F165, 2-Chloro-5-((1R,3R)-2,2-dichloro-3-(3,5-dichlorophenyl)cyclopropane-1-carboxamido)-N-(4-fluorophenyl)benzamide] | pest or weed control at 50 µg/cm2 [1, 8]: 50 to 100%; YFM (Biological Results, rating) [2]: B (More than 0-Less than 80); pest or weed control at 50 µg/cm2 [3, 9]: 50 to 100%; pest or weed control at 200 µg/mL [4, 10]: 80 to 100%
– | O=C(Nc1ccc(F)cc1)c1cc(NC(=O)[C@H]2[C@H](c3cc(Cl)c(Cl)c(Cl)c3)C2(Cl)Cl)ccc1Cl [F279, 2-Chloro-5-((1R,3R)-2,2-dichloro-3-(3,4,5-trichlorophenyl)cyclopropane-1-carboxamido)-N-(4-fluorophenyl)benzamide] | pest or weed control at 50 µg/cm2 [1, 8]: 50 to 100%; YFM (Biological Results, rating) [2]: A (80-100); pest or weed control at 50 µg/cm2 [3, 9]: 50 to 100%; pest or weed control at 200 µg/mL [4, 10]: 80 to 100%
– | O=C(Nc1ccc(F)cc1)c1cc(NC(=O)[C@@H]2[C@@H](c3cc(Cl)c(Cl)c(Cl)c3)C2(Cl)Cl)ccc1Cl [F280, 2-Chloro-5-((1S,3S)-2,2-dichloro-3-(3,4,5-trichlorophenyl)cyclopropane-1-carboxamido)-N-(4-fluorophenyl)benzamide] | pest or weed control at 50 µg/cm2 [1, 8]: 50 to 100%; YFM (Biological Results, rating) [2]: A (80-100); pest or weed control at 50 µg/cm2 [3, 9]: 50 to 100%; pest or weed control at 200 µg/mL [4, 10]: 0 to 80%
– | C#CCN(C(=O)c1cc(NC(=O)[C@H]2[C@H](c3ccc(F)c(Cl)c3)C2(Cl)Cl)ccc1Cl)c1ccc(F)cc1F [F414, 2-Chloro-5-((1R,3R)-2,2-dichloro-3-(3-chloro-4-fluorophenyl)cyclopropane-1-carboxamido)-N-(2,4-difluorophenyl)-N-(prop-2-yn-1-yl)benzamide] | pest or weed control at 50 µg/cm2 [1, 5]: 50 to 100%; YFM rating [2]: A (80-100); pest or weed control at 50 µg/cm2 [3, 6]: 50 to 100%; pest or weed control at 200 µg/mL [4, 7]: 80 to 100%
– | O=C(Nc1ccc2ncsc2c1)c1cc(NC(=O)C2C(c3cc(Cl)cc(Cl)c3)C2(Cl)Cl)ccc1Cl (stereo not drawn) [F434, N-(Benzo[d]thiazol-6-yl)-2-chloro-5-(trans)-2,2-dichloro-3-(3,5-dichlorophenyl)cyclopropane-1-carboxamido)benzamide] | pest or weed control at 50 µg/cm2 [1, 5]: 50 to 100%; YFM rating [2]: A (80-100); pest or weed control at 50 µg/cm2 [3, 6]: 50 to 100%; pest or weed control at 200 µg/mL [4, 7]: 0 to 80%
– | O=C(Nc1ccc2nc(Cl)[nH]c2c1)c1cc(NC(=O)C2C(c3cc(Cl)cc(Cl)c3)C2(Cl)Cl)ccc1Cl (stereo not drawn) [F438, 2-Chloro-N-(2-chloro-1H-benzo[d]imidazol-6-yl)-5-(trans)-2,2-dichloro-3-(3,5-dichlorophenyl)cyclopropane-1-carboxamido)benzamide] | pest or weed control at 50 µg/cm2 [1, 5]: 50 to 100%; YFM rating [2]: B (More than 0-Less than 80); pest or weed control at 50 µg/cm2 [3, 6]: 50 to 100%; pest or weed control at 200 µg/mL [4, 7]: 0 to 80%
– | O=C(Nc1ccc(F)cc1F)c1cc(NC(=O)[C@H]2[C@H](c3ccc(F)c(Cl)c3)C2(Cl)Cl)ccc1Cl [F533] | pest or weed control at 50 µg/cm2 [1, 5]: 50 to 100%; YFM rating [2]: A (80-100); pest or weed control at 50 µg/cm2 [3, 6]: 50 to 100%; pest or weed control at 200 µg/mL [4, 7]: 80 to 100%
– | Nc1c(F)ccc(NC(=O)c2cc(NC(=O)[C@H]3[C@H](c4ccc(Cl)c(Br)c4)C3(Cl)Cl)ccc2Cl)c1F [F579, N-(3-Amino-2,4-difluorophenyl)-5-((1R,3R)-3-(3-bromo-4-chlorophenyl)-2,2-dichlorocyclopropane-1-carboxamido)-2-chlorobenzamide] | pest or weed control at 50 µg/cm2 [1, 5]: 50 to 100%; YFM rating [2]: A (80-100); pest or weed control at 50 µg/cm2 [3, 6]: 50 to 100%; pest or weed control at 200 µg/mL [4, 7]: 80 to 100%

— patent publication US10219516B2, “Molecules having pesticidal utility, and intermediates, compositions, and processes, related thereto” (priority 2015, dated 2019)
